Measurements as given in ChEMBL document CHEMBL1201862, “PubChem BioAssay data set” (2004).
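A five-concentration, 48-hour dose response in 96-well plates underlies each endpoint, interpolated linearly between surrounding concentrations. GI50 = concentration required for 50% inhibition of growth.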 Calls of active or inactive are those of the source. Cut-off read from the data, not from the text of the source: active = GI50 up to about 1.1 µM and inactive = higher.

How the values were obtained:
Assay in all cases: NCI tumour cell line growth inhibition, 48 h
[1] = test system: 786-0
[2] = test system: A549
[3] = test system: ACHN
[4] = test system: CAKI-1
[5] = test system: CCRF-CEM
[6] = test system: COLO 205
[7] = test system: DLD-1
[8] = test system: DMS-114
[9] = test system: DMS-273
[10] = test system: EKVX
[11] = test system: HCC 2998
[12] = test system: HCT-116
[13] = test system: HCT-15
[14] = test system: HL-60
[15] = test system: HOP-18
[16] = test system: HOP-62
[17] = test system: HT-29
[18] = test system: K562
[19] = test system: KM12
[20] = test system: LOX IMVI
[21] = test system: M14
[22] = test system: M19-MEL
[23] = test system: MOLT-4
[24] = test system: Malme-3M
[25] = test system: NCI-H226
[26] = test system: NCI-H23
[27] = test system: NCI-H522
[28] = test system: OVCAR-3
[29] = test system: OVCAR-4
[30] = test system: OVCAR-5
[31] = test system: OVCAR-8
[32] = test system: RPMI-8226
[33] = test system: SF-268
[34] = test system: SF-295
[35] = test system: SF-539
[36] = test system: SK-MEL-28
[37] = test system: SK-MEL-2
[38] = test system: SK-MEL-5
[39] = test system: SN12C
[40] = test system: SNB-19
[41] = test system: SNB-75
[42] = test system: SNB-78
[43] = test system: SR
[44] = test system: SW-620
[45] = test system: TK-10
[46] = test system: UACC-257
[47] = test system: UO-31
[48] = test system: XF498
[49] = test system: KM-20L2
[50] = test system: LXFL 529
[51] = test system: NCI-H460
[52] = test system: RXF 393

**Q.** For `COc1cc(/C=C2\C(=O)N(C(=O)Cc3ccccc3)N=C2C)ccc1O`, which GI50 [1] is on record?
**A.** > 100 µM (inactive)

**Q.** And the GI50 [2]?
**A.** > 100 µM (inactive)

**Q.** And the GI50 [3]?
**A.** > 100 µM (inactive)

**Q.** And the GI50 [4]?
**A.** > 100 µM (inactive)

**Q.** What about the GI50 [5] of the same compound?
**A.** > 100 µM (inactive)

**Q.** What about the GI50 [6] of the same compound?
**A.** > 100 µM (inactive)

**Q.** And the GI50 [7]?
**A.** > 100 µM (inactive)

**Q.** And the GI50 [8]?
**A.** > 100 µM (inactive)

**Q.** And the GI50 [9]?
**A.** > 100 µM (inactive)

**Q.** What about the GI50 [10] of the same compound?
**A.** > 100 µM (inactive)

**Q.** And the GI50 [11]?
**A.** > 100 µM (inactive)

**Q.** What about the GI50 [12] of the same compound?
**A.** > 100 µM (inactive)

**Q.** And the GI50 [13]?
**A.** > 100 µM

**Q.** And the GI50 [14]?
**A.** > 100 µM (inactive)

**Q.** And the GI50 [15]?
**A.** > 100 µM (inactive)

**Q.** And the GI50 [16]?
**A.** > 100 µM (inactive)

**Q.** And the GI50 [17]?
**A.** > 10 µM (inactive)

**Q.** What about the GI50 [18] of the same compound?
**A.** > 100 µM (inactive)

**Q.** And the GI50 [19]?
**A.** > 100 µM (inactive)

**Q.** What about the GI50 [20] of the same compound?
**A.** > 100 µM (inactive)

**Q.** And the GI50 [21]?
**A.** > 100 µM (inactive)

**Q.** And the GI50 [22]?
**A.** > 100 µM (inactive)

**Q.** What about the GI50 [23] of the same compound?
**A.** > 100 µM (inactive)

**Q.** What about the GI50 [24] of the same compound?
**A.** > 100 µM (inactive)

**Q.** And the GI50 [25]?
**A.** > 100 µM (inactive)

**Q.** And the GI50 [26]?
**A.** > 100 µM (inactive)

**Q.** And the GI50 [27]?
**A.** > 100 µM (inactive)

**Q.** And the GI50 [28]?
**A.** > 100 µM (inactive)

**Q.** What about the GI50 [29] of the same compound?
**A.** > 100 µM (inactive)

**Q.** And the GI50 [30]?
**A.** > 100 µM (inactive)

**Q.** And the GI50 [31]?
**A.** > 100 µM (inactive)

**Q.** And the GI50 [32]?
**A.** > 100 µM (inactive)

**Q.** And the GI50 [33]?
**A.** > 100 µM (inactive)

**Q.** What about the GI50 [34] of the same compound?
**A.** > 100 µM (inactive)

**Q.** And the GI50 [35]?
**A.** > 100 µM (inactive)

**Q.** And the GI50 [36]?
**A.** > 100 µM (inactive)

**Q.** And the GI50 [37]?
**A.** > 100 µM (inactive)

**Q.** What about the GI50 [38] of the same compound?
**A.** 3.01 µM (inactive)

**Q.** And the GI50 [39]?
**A.** > 100 µM (inactive)

**Q.** What about the GI50 [40] of the same compound?
**A.** > 100 µM (inactive)

**Q.** And the GI50 [41]?
**A.** > 100 µM (inactive)

**Q.** And the GI50 [42]?
**A.** > 100 µM (inactive)

**Q.** And the GI50 [43]?
**A.** > 100 µM (inactive)

**Q.** And the GI50 [44]?
**A.** > 100 µM (inactive)

**Q.** What about the GI50 [45] of the same compound?
**A.** > 100 µM (inactive)

**Q.** And the GI50 [46]?
**A.** > 100 µM (inactive)

**Q.** What about the GI50 [47] of the same compound?
**A.** > 100 µM (inactive)

**Q.** And the GI50 [48]?
**A.** > 100 µM (inactive)

**Q.** Which results are given for `N#CC(NC12CC3CC(CC(C3)C1)C2)c1ccccc1C(F)(F)F` (stereo not given)?
**A.** GI50 [2]: > 100 µM (inactive); GI50 [3]: > 100 µM (inactive); GI50 [4]: > 100 µM (inactive); GI50 [5]: > 100 µM (inactive); GI50 [6]: > 100 µM (inactive); GI50 [7]: > 100 µM (inactive); GI50 [8]: > 100 µM (inactive); GI50 [9]: > 100 µM (inactive); GI50 [10]: > 100 µM (inactive); GI50 [11]: > 100 µM (inactive); GI50 [12]: > 100 µM (inactive); GI50 [13]: > 100 µM; GI50 [14]: > 100 µM (inactive); GI50 [15]: > 100 µM (inactive); GI50 [16]: > 100 µM (inactive); GI50 [17]: > 100 µM (inactive); GI50 [18]: > 100 µM (inactive); GI50 [49]: > 100 µM (inactive); GI50 [19]: > 100 µM (inactive); GI50 [20]: > 100 µM (inactive); GI50 [50]: > 100 µM (inactive); GI50 [21]: > 100 µM (inactive); GI50 [22]: > 100 µM (inactive); GI50 [23]: > 100 µM (inactive); GI50 [24]: > 100 µM (inactive); GI50 [25]: > 100 µM (inactive); GI50 [26]: > 100 µM (inactive); GI50 [51]: > 100 µM (inactive); GI50 [27]: > 100 µM (inactive); GI50 [28]: > 100 µM (inactive); GI50 [29]: > 100 µM (inactive); GI50 [30]: > 100 µM (inactive); GI50 [31]: > 100 µM (inactive); GI50 [32]: > 100 µM (inactive); GI50 [52]: > 100 µM (inactive); GI50 [33]: > 100 µM (inactive); GI50 [35]: > 100 µM (inactive); GI50 [36]: > 100 µM (inactive); GI50 [37]: > 100 µM (inactive); GI50 [38]: > 100 µM (inactive); GI50 [39]: > 100 µM (inactive); GI50 [40]: > 100 µM (inactive); GI50 [43]: > 100 µM (inactive); GI50 [44]: > 100 µM (inactive); GI50 [45]: > 100 µM (inactive); GI50 [47]: > 100 µM (inactive); GI50 [48]: > 100 µM (inactive)

**Q.** What does the source list for `c1cnc2c(c1)-n1cccc1C1(CCSCC1)NN2`?
**A.** GI50 [1]: > 100 µM (inactive); GI50 [2]: > 100 µM (inactive); GI50 [3]: > 100 µM (inactive); GI50 [4]: 88.5 µM (inactive); GI50 [5]: > 100 µM (inactive); GI50 [6]: > 100 µM (inactive); GI50 [9]: > 100 µM (inactive); GI50 [10]: > 100 µM (inactive); GI50 [11]: > 100 µM (inactive); GI50 [12]: > 100 µM (inactive); GI50 [13]: 80.2 µM; GI50 [14]: 39.6 µM (inactive); GI50 [15]: 26 µM (inactive); GI50 [16]: > 100 µM (inactive); GI50 [17]: > 100 µM (inactive); GI50 [18]: 89.5 µM (inactive); GI50 [19]: > 100 µM (inactive); GI50 [20]: 68.7 µM (inactive); GI50 [21]: > 100 µM (inactive); GI50 [22]: 48.5 µM (inactive); GI50 [23]: 50.2 µM (inactive); GI50 [24]: > 100 µM (inactive); GI50 [25]: 59 µM (inactive); GI50 [51]: 83.4 µM (inactive); GI50 [27]: 95.3 µM (inactive); GI50 [28]: > 100 µM (inactive); GI50 [29]: > 100 µM (inactive); GI50 [30]: > 100 µM (inactive); GI50 [31]: > 100 µM (inactive); GI50 [32]: > 100 µM (inactive); GI50 [33]: > 100 µM (inactive); GI50 [34]: > 100 µM (inactive); GI50 [35]: > 100 µM (inactive); GI50 [36]: > 100 µM (inactive); GI50 [37]: > 100 µM (inactive); GI50 [38]: > 100 µM (inactive); GI50 [39]: > 100 µM (inactive); GI50 [40]: > 100 µM (inactive); GI50 [41]: 53.5 µM (inactive); GI50 [43]: 61.8 µM (inactive); GI50 [44]: > 100 µM (inactive); GI50 [45]: 42.6 µM (inactive); GI50 [46]: 90.2 µM (inactive); GI50 [47]: 32.4 µM (inactive); GI50 [48]: > 100 µM (inactive)
